Experimental data reported in ChEMBL document CHEMBL6087474, “Discovery of an Efficacious RET PROTAC Degrader with Enhanced Antiproliferative Activity against Resistant Cancer Cells Harboring RET Solvent-Front Mutations” (J Med Chem, 2025).
The source made the active and inactive calls. No cut-off for these calls is given here.

Experiments:
[1] = Induction of apoptosis in mouse BaF3 cells stably expressing KIF5B-RET-G810C mutant assessed as viable cells at 100 nM measured after 48 hrs by Annexin V-FITC/7-AAD staining based flow cytometric analysis (reference value: 86.58 %); assay type: functional; settings: read-out: Activity
[2] = Induction of apoptosis in mouse BaF3 cells stably expressing KIF5B-RET-G810C mutant assessed as necrotic cells at 300 nM measured after 48 hrs by Annexin V-FITC/7-AAD staining based flow cytometric analysis (reference value: 2.89 %); assay type: functional
[3] = Potency index, ratio of selpercatinib IC50 to test compound IC50 for antiproliferative activity against mouse BaF3 cells stably expressing CCDC6-RET-G810C mutant incubated for 72 hrs by CCK-8 assay; assay type: functional
[4] = test system: BaF3; assay: Antiproliferative activity against mouse BaF3 cells stably expressing KIF5B-RET fusion protein incubated for 72 hrs by CCK-8 assay; assay type: functional, cell-based; settings: BaF3, 72 h
[5] = test system: BaF3; assay: Antiproliferative activity against mouse BaF3 cells stably expressing CCDC6-RET-G810C mutant incubated for 72 hrs by CCK-8 assay; assay type: functional, cell-based; settings: BaF3, 72 h
[6] = Potency index, ratio of selpercatinib IC50 to test compound IC50 for antiproliferative activity against mouse BaF3 cells stably expressing KIF5B-RET-G810S mutant incubated for 72 hrs by CCK-8 assay; assay type: functional
[7] = Effect on Shc protein level in mouse BaF3 cells stably expressing wildtype KIF5B-RET assessed as fold change at 33.3 nM measured after 6 hrs by Western blot analysis; assay type: functional
[8] = molecular target: Proto-oncogene tyrosine-protein kinase receptor Ret (Homo sapiens, UniProt P07949); assay: Inhibition of wildtype RET (unknown origin) in presence of ATP by FRET-based Z'-Lyte assay
Chain of Proto-oncogene tyrosine-protein kinase receptor Ret (P07949 whole entry): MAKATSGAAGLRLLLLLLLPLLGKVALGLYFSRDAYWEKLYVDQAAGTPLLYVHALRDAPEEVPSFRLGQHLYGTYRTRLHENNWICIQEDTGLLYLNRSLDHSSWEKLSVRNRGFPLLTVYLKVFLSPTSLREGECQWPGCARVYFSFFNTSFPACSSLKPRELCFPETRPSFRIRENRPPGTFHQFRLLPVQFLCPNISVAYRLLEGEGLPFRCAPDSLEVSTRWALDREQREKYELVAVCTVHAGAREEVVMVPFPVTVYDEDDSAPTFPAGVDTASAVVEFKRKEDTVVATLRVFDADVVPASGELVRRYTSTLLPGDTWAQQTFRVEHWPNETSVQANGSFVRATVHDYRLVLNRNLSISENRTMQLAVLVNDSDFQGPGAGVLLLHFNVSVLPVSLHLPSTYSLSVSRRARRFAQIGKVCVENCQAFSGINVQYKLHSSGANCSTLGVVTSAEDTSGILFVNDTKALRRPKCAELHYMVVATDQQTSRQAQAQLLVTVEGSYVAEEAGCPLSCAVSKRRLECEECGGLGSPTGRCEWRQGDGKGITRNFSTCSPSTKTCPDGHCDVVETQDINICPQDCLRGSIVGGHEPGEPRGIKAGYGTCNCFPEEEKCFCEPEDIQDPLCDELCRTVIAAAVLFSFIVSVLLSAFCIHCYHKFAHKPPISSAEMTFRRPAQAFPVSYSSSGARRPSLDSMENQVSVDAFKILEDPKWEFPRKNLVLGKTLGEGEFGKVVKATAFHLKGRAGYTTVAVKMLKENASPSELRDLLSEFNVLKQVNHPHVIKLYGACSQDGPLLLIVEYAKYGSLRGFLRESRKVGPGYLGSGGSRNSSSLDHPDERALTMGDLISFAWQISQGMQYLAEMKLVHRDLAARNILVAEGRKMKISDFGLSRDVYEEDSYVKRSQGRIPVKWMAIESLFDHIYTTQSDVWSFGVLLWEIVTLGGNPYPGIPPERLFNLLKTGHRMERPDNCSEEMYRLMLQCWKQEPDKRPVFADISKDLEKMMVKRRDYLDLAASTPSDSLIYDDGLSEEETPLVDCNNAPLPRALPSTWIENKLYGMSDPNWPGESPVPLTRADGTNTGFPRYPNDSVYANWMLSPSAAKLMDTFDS

[9] = test system: BaF3; assay: Antitumor activity against mouse BaF3 cells stably expressing KIF5B-RET-G810C mutant implanted in male BALB/c mouse model assessed as reduction in tumor weight at 30 mg/kg, ip administered daily for 14 days relative to control; assay type: functional; set-up: scale not given: the % may be the effect or the level left; settings: time 14 day
[10] = Induction of apoptosis in mouse BaF3 cells stably expressing wildtype KIF5B-RET fusion protein assessed as necrotic cells at 11.1 nM measured after 48 hrs by Annexin V-FITC/7-AAD staining based flow cytometric analysis (reference value: 2.40 %); assay type: functional
[11] = Induction of apoptosis in mouse BaF3 cells stably expressing KIF5B-RET-G810C mutant assessed as viable cells at 900 nM measured after 48 hrs by Annexin V-FITC/7-AAD staining based flow cytometric analysis (reference value: 86.58 %); assay type: functional; settings: read-out: Activity
[12] = Effect on Shc protein level in mouse BaF3 cells stably expressing KIF5B-RET-V804M mutant assessed as fold change at 100 nM measured after 6 hrs by Western blot analysis (reference value: 1); assay type: functional
[13] = Induction of apoptosis in mouse BaF3 cells stably expressing wildtype KIF5B-RET fusion protein assessed as early apoptotic cells at 11.1 nM measured after 48 hrs by Annexin V-FITC/7-AAD staining based flow cytometric analysis (reference value: 9.92 %); assay type: functional
[14] = test system: BaF3; assay: PROTAC activity at CRBN/KIF5B-RET (unknown origin) expressed in mouse BaF3 cells assessed as induction of RET degradation at 1000 nM measured after 6 hrs by Western blot analysis relative to control; assay type: cell-based
[15] = test system: BaF3; assay: Antiproliferative activity against mouse BaF3 cells stably expressing KIF5B-RET-G810R mutant incubated for 72 hrs by CCK-8 assay; assay type: functional, cell-based; settings: BaF3, 72 h
[16] = PROTAC activity at CRBN/KIF5B-RET-V804M mutant (unknown origin) expressed in mouse BaF3 cells assessed as induction of RET degradation measured after 6 hrs by Western blot analysis; assay type: cell-based; settings: BaF3, 6 h
[17] = Effect on RET protein level in mouse BaF3 cells stably expressing KIF5B-RET-G810R mutant assessed as fold change at 100 nM measured after 6 hrs by Western blot analysis (reference value: 1); assay type: functional
[18] = Effect on Shc protein level in mouse BaF3 cells stably expressing KIF5B-RET-G810R mutant assessed as fold change at 100 nM measured after 6 hrs by Western blot analysis (reference value: 1); assay type: functional
[19] = Effect on Shc protein level in mouse BaF3 cells stably expressing KIF5B-RET-G810C mutant assessed as fold change at 300 nM measured after 6 hrs by Western blot analysis (reference value: 1); assay type: functional
[20] = Effect on Shc protein level in mouse BaF3 cells stably expressing wildtype KIF5B-RET assessed as fold change at 100 nM measured after 6 hrs by Western blot analysis; assay type: functional
[21] = test system: BaF3; assay: Antitumor activity against mouse BaF3 cells stably expressing KIF5B-RET-G810C mutant implanted in male BALB/c mouse model assessed as tumor growth inhibition at 10 mg/kg, ip administered daily for 14 days relative to control; assay type: functional; settings: BaF3, 336 h, time 14 day, read-out: TGI
[22] = test system: Kinesin-1 heavy chain/ Tyrosine-protein kinase receptor RET (Homo sapiens), P07949+P33176 [G810C]; assay: In vivo PROTAC activity at CRBN/KIF5B-RET-G810C mutant in male BALB/c mouse model implanted with mouse BaF3 cells stably expressing KIF5B-RET-G810C mutant assessed as induction of RET degradation in tumor at 30 mg/kg, ip measured after 3 days by Western blotting analysis relative to control; assay type: functional, organism-based; settings: time 3.0 day
[23] = Effect on Shc protein level in mouse BaF3 cells stably expressing KIF5B-RET-G810R mutant assessed as fold change at 33.3 nM measured after 6 hrs by Western blot analysis (reference value: 1); assay type: functional
[24] = Induction of apoptosis in mouse BaF3 cells stably expressing KIF5B-RET-G810C mutant assessed as early apoptotic cells at 100 nM measured after 48 hrs by Annexin V-FITC/7-AAD staining based flow cytometric analysis (reference value: 8.57 %); assay type: functional
[25] = Effect on Shc protein level in mouse BaF3 cells stably expressing KIF5B-RET-V804M mutant assessed as fold change at 300 nM measured after 6 hrs by Western blot analysis (reference value: 1); assay type: functional
[26] = Effect on Shc protein level in mouse BaF3 cells stably expressing KIF5B-RET-G810C mutant assessed as fold change at 33.3 nM measured after 6 hrs by Western blot analysis (reference value: 1); assay type: functional
[27] = Induction of apoptosis in mouse BaF3 cells stably expressing wildtype KIF5B-RET fusion protein assessed as viable cells at 300 nM measured after 48 hrs by Annexin V-FITC/7-AAD staining based flow cytometric analysis (reference value: 86.65 %); assay type: functional; settings: read-out: Activity
[28] = AUC in male ICR mouse at 10 mg/kg, ip measured after 24 hrs by LC-MS/MS analysis; assay type: ADME, organism-based; settings: in vivo
[29] = test system: BaF3; assay: PROTAC activity at CRBN/IKZF1 in mouse BaF3 cells overexpressing KIF5B-RET assessed as induction of […] at 10 to 1000 nM incubated for 6 hrs by Western blot analysis; assay type: cell-based; settings: dose 10-1000 nM

Compound: COc1ccc(CN2C3CC2CN(c2ccc(-c4cc(-c5cnn(C6CCN(CCCCCC#Cc7cccc8c7CN(C7CCC(=O)NC7=O)C8=O)CC6)c5)cn5ncc(C#N)c45)cn2)C3)cn1 (centres undefined)
- viability at 0.1 µM [1]: 75.4%
- Activity [2]: 2.15%
- Ratio IC50 [3]: ~8.8
- IC50 [4]: 10 nM
- IC50 [5]: 40 nM
- Ratio IC50 [6]: 6.3
- fold change (FC) [7]: 1
- IC50 [8]: 5.7 nM
- Activity [9]: 34.4%
- Activity [10]: 3%
- viability at 0.9 µM [11]: 41%
- fold change (FC) [12]: 0.9
- Activity [13]: 11.31%
- Activity [14]: 74%
- IC50 [15]: 150 nM
- DC50 [16]: 17.2 nM
- fold change (FC) [17]: 0.9
- fold change (FC) [18]: 0.9
- fold change (FC) [19]: 1
- fold change (FC) [20]: 1
- inhibition in vivo at 10 mg/kg [21]: 31.6%
- Activity [22]: 55.3%
- fold change (FC) [23]: 0.9
- Activity [24]: 19.9%
- fold change (FC) [25]: 1
- fold change (FC) [26]: 1
- viability at 0.3 µM [27]: 50.2%
- AUC at 24 h [28]: 680 ng·h/mL
- Activity [29]: inactive
